# Target: T1, ADRA1A (Homo sapiens, UniProt P35348)
# T1 construct: purchased Promega (in-house HiBiT-GPCR construct library, NanoBRET)
# T1 sequence (P35348 1-466): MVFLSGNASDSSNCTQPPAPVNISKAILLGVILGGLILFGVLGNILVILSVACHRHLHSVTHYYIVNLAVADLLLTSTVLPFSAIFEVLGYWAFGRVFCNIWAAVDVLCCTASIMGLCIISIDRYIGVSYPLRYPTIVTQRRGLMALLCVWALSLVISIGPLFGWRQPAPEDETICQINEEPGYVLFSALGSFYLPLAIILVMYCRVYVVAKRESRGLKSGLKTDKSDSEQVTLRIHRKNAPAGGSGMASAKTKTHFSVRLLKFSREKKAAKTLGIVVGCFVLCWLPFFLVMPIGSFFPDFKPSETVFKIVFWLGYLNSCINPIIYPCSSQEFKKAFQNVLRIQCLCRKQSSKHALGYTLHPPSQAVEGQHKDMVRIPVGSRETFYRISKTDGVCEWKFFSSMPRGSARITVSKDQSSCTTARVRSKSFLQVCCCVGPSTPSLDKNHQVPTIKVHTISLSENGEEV
# Test: NanoBRET screen HiBiT-ADRA1A in HEK293
# Format: binding
# Experimental: Each tracer candidate was screened across the entire library of HiBiT-GPCR constructs using NanoBRET as the detection modality. As depicted in Figure 4A, the specificity of interactions was evaluated through decrease in BRET due to competitive displacement of a bound tracer by excess parental compound. Each tracer was analyzed for binding to each HiBiT-GPCR fusion in the absence and in the presence of competing parental compound. Briefly, HEK293 cells were transfected with HiBiT-GPCR constructs diluted into promoterless DNA to reduce expression and maximize translocation to the cell surface. Each tracer candidate was then screened at concentrations of 1 μM and 0.1 μM across cells expressing these fusions. Cells were treated for 1.5 h with tracer either alone or in the presence of 20 μM competing parental compound (i.e., control). BRET was measured upon addition of purified LgBiT and subsequent complementation with HiBiT genetically fused to a GPCR. The specificity of interactions was assessed through a decrease in BRET signal due to competitive displacement of the bound tracer. To further gauge the robustness of these interactions, the fold response over the control (i.e., BRETtracer/BRETcontrol) was calculated. We chose a 1.5-fold response, which translates to ≥7-fold signal over noise as the minimal threshold required to score an interaction as positive.
# HiBiT-GPCR DNA constructs were diluted in 10 mM Tris pH 8 to a final concentration of 0.01 μg/μL, arrayed in 96-well plates and stored at −20 °C. For transfection, HEK293 cells were suspended in Opti-MEM (without phenol red) supplemented with 2% fetal bovine serum (Seradigm) and 100 units/mL penicillin–streptomycin (Gibco) at a final concentration of 220,000 cells/mL and dispensed into white 96-well plates at 90 μL/well. Subsequent transfections and screens were carried using an Agilent Bravo Automated Liquid Handling Platform. First, the 96-well HiBiT DNA arrays were diluted 25-fold in Opti-MEM (without serum or phenol red) to a final concentration of 0.0004 μg/μL and 20 μL of the diluted DNAs were transferred into new 96-well plates. Next, promoterless carrier DNA (1 μg/μL) was diluted 25-fold (0.04 μg/μL) and then dispensed into the diluted arrays at 20 μL/well. Following brief mixing, Viafect transfection reagent (Promega) diluted 16-fold into Opti-MEM was dispensed into the plates at 40 μL/well. After mixing by pipetting, plates were incubated for 10 min on the pipetting station deck. The DNA-transfection reagent complexes were then added to plates containing cells. To facilitate the screen, 10 μL of DNA-transfection reagent complexes were added in duplicates to the top 4 and bottom 4 rows, resulting in two identical 48-well arrays per plate. Plates with transfected cells were incubated for 18–20 h at 37 °C/5% CO2. A screen of each tracer across the entire library using two different concentrations requires duplicate plates of transfected cells. Depending on the number of tracers being screened, transfections can be scaled up using the same ratios. The next day, for each tracer, four 20× screening solutions in tracer dilution buffer (Promega) were prepared: two duplicates at final concentration of 20 μM and two duplicates at a final concentration of 2 μM. […] The four resulting solutions were diluted 4-fold in Opti-MEM without serum or phenol red to generate 5× solutions (5 µM and 0.5 µM tracer +/− 100 μM competing compound). To screen the library, a BioTek MultiFlo FX liquid dispenser was used to dispense 22.5 µL of tracer solution to the top 4 rows and 22.5 µL tracer + competing compound solution to the 4 bottom rows. Plates were briefly mixed on an orbital shaker and incubated for 1.5 h at room temperature. […] Plates were briefly mixed on an orbital shaker and incubated for 15 min to allow complementation.
Compound,"NanoBRET Fold Response (ADRA1A, tracer 0.1μM)","NanoBRET Fold Response (ADRA1A, tracer 1μM)",other results
O=C(CCc1ccc2n1[B-](F)(F)[N+]1=C(c3ccc[nH]3)C=CC1=C2)NCc1ccc(C(=O)NCCOCCC(=O)N[C@@H]2CC[C@@]3(O)[C@H]4Cc5ccc(O)c6c5[C@@]3(CCN4CC3CC3)[C@H]2O6)cc1 [Naltrexone-3-NB590],1.10,0.96,
CCCn1c(=O)c2[nH]c(-c3ccc(OCC(=O)NCCNC(=O)CCOCCNC(=O)c4ccc(CNC(=O)CCc5ccc6n5[B-](F)(F)[N+]5=C(c7ccc[nH]7)C=CC5=C6)cc4)cc3)nc2n(CCC)c1=O [XAC-3-NB590],1.10,0.94,
CC(C)N(CC[C@H](c1ccccc1)c1cc(CCNC(=O)c2ccc(CNC(=O)CCc3ccc4n3[B-](F)(F)[N+]3=C(c5ccc[nH]5)C=CC3=C4)cc2)ccc1O)C(C)C [Tolterodine-BZ-NB590],1.56,2.17,
N#CN/C(=N\CCNC(=O)c1ccc(N)cc1)NCCCOc1cccc(CN2CCCCC2)c1 [Aminopotentidine (unmodified)],,,"NanoBRET Fold Response (ADRA1A, other tracers/Aminopotentidine (unmodified), 0.1μM): 1.03; NanoBRET Fold Response (ADRA1A, other tracers/Aminopotentidine (unmodified), 1μM): 1.07"
COc1ccc2[nH]c(-c3ccc(CNC(=O)CCOCCOCCOCCOCCNC(=O)CCc4ccc5n4[B-](F)(F)[N+]4=C(c6ccc[nH]6)C=CC4=C5)cc3)c(CCNC(C)=O)c2n1 [AzomelatoninICO9-2-NB590],,,NanoBRET Fold Response (0.1μM tracer): 1.06; NanoBRET Fold Response (1μM tracer): 0.94
COc1ccccc1N1CCN(CCCCN2C(=O)c3ccc(CNC(=O)CCOCCNC(=O)c4ccc(CNC(=O)CCc5ccc6n5[B-](F)(F)[N+]5=C(c7ccc[nH]7)C=CC5=C6)cc4)cc3C2=O)CC1 [NAN-190-3-NB590],3.94,3.91,
Cc1nc2n(c(=O)c1CCN1CCC(c3noc4cc(F)ccc34)CC1)CCCC2OC(=O)NCCOCCOCCOCCOCCNC(=O)CCc1ccc2n1[B-](F)(F)[N+]1=C(c3ccc[nH]3)C=CC1=C2 (stereo not drawn) [Risperidone-2-NB590],4.86,3.45,
O=C(CCOCCOCCOCCOCCNC(=O)CCc1ccc2n1[B-](F)(F)[N+]1=C(c3ccc[nH]3)C=CC1=C2)NCCCN1CCN(C2=Nc3ccccc3Oc3ccc(Cl)cc32)CC1 [Loxapine-a-2-NB590],3.76,3.42,
COc1ccccc1N1CCN(CCCCN2C(=O)c3ccc(CNC(=O)CCOCCOCCOCCOCCNC(=O)CCc4ccc5n4[B-](F)(F)[N+]4=C(c6ccc[nH]6)C=CC4=C5)cc3C2=O)CC1 [NAN-190-2-NB590],5.18,4.33,
CC(C)N(CC[C@H](c1ccccc1)c1cc(CCNC(=O)CCOCCOCCOCCOCCNC(=O)CCc2ccc3n2[B-](F)(F)[N+]2=C(c4ccc[nH]4)C=CC2=C3)ccc1O)C(C)C [Tolterodine-2-NB590],0.97,0.98,
N#CN=C(NCCCOc1cccc(CN2CCCCC2)c1)NCCNC(=O)CCOCCOCCOCCOCCNC(=O)CCc1ccc2n1[B-](F)(F)[N+]1=C(c3ccc[nH]3)C=CC1=C2 [Aminopotentidine-2-NB590],1.05,1.00,
CCOC(=O)c1cc(C#N)c(N2CCC(C(=O)NS(=O)(=O)Cc3ccccc3/C=C/C(=O)NCCNC(=O)CCc3ccc4n3[B-](F)(F)[N+]3=C(c5ccc[nH]5)C=CC3=C4)CC2)nc1C [AZD1283-1-NB590],,,"NanoBRET Fold Response (ADRA1A, 0.1μM): 1.06; NanoBRET Fold Response (ADRA1A, 1μM): 1.06"
CN(C)CCC=C1c2ccccc2CCc2ccc(C(=O)NCCNC(=O)CCOCCOCCOCCOCCNC(=O)CCc3ccc4n3[B-](F)(F)[N+]3=C(c5ccc[nH]5)C=CC3=C4)cc21 [Amitriptyline-b-2-NB590],,,"NanoBRET Fold Response (tracer at 0.1μM, listed as amitriptyline-b-2-NB590): 4.73; NanoBRET Fold Response (tracer at 1μM, listed as amitriptyline-b-2-NB590): 2.23"
CN(C)CCC=C1c2ccccc2CCc2ccc(C(=O)NCCNC(=O)CCOCCOCCOCCOCCNC(=O)CCc3ccc4n3[B-](F)(F)[N+]3=C(c5ccc[nH]5)C=CC3=C4)cc21 [Amitriptyline-a-2-NB590],,,NanoBRET Fold Response (tracer at 0.1μM): 1.38; NanoBRET Fold Response (tracer at 1μM): 2.14
O=C(CCc1ccc2n1[B-](F)(F)[N+]1=C(c3ccc[nH]3)C=CC1=C2)NCCOCCOCCNC(=O)OCCOCCN1CCN(C2=Nc3ccccc3Sc3ccccc32)CC1 [Quetiapine-a-2-NB590],3.24,3.51,
Cc1cc2c(s1)Nc1ccccc1N=C2N1CCN(CCCNC(=O)CCOCCOCCOCCOCCNC(=O)CCc2ccc3n2[B-](F)(F)[N+]2=C(c4ccc[nH]4)C=CC2=C3)CC1 [Olanzapine-a-2-NB590],2.86,3.58,
COc1ccc2c(n1)c(CCNC(C)=O)cn2CCNC(=O)CCc1ccc2n1[B-](F)(F)[N+]1=C(c3ccc[nH]3)C=CC1=C2 [Azamelatonin-1-NB590],,,NanoBRET Fold Response (0.1μM tracer): 0.96; NanoBRET Fold Response (1μM tracer): 0.95
CN(CCC=C1c2ccccc2CCc2ccccc21)C(=O)CCOCCOCCOCCOCCNC(=O)CCc1ccc2n1[B-](F)(F)[N+]1=C(c3ccc[nH]3)C=CC1=C2 [Amitriptyline-e-2-NB590],,,NanoBRET Fold Response (tracer at 1μM): 1.32
O=C(CCc1ccc2n1[B-](F)(F)[N+]1=C(c3ccc[nH]3)C=CC1=C2)NCc1ccc(C(=O)NCCOCCOCCNCC(O)COc2cccc3ccccc23)cc1 (stereo not drawn) [Propranolol-3-NB590],,,"NanoBRET Fold Response (ADRA1A, 0.1μM): 1.53; NanoBRET Fold Response (ADRA1A, 1μM): 1.47"
O=C(CCOCCOCCOCCOCCNC(=O)CCc1ccc2n1[B-](F)(F)[N+]1=C(c3ccc[nH]3)C=CC1=C2)NCCCN1CCN(C2=Nc3cc(Cl)ccc3Nc3ccccc32)CC1 [Clozapine-a-2-NB590],,,"NanoBRET Fold Response (ADRA1A, 0.1μM tracer): 3.90; NanoBRET Fold Response (ADRA1A, 1μM tracer): 3.21"

# Reference: article PMC8151276, “An Integrated Approach toward NanoBRET Tracers for Analysis of GPCR Ligand Engagement” (Molecules, 2021)
